Measured values from ChEMBL document CHEMBL4406914, “Impact of Minor Structural Modifications on Properties of a Series of mTOR Inhibitors” (ACS Med Chem Lett, 2019).
In brackets after ≈: the same amount, converted by molar mass.

Tests used:
[1] = Kinetic aqueous solubility of compound in phosphate buffer at pH 7.4 at 100 uM at 20 degree C shaken for 24 hrs by HPLC analysis; assay type: physicochemical; conditions: read-out: Kinetic_solubility
[2] = target: Serine/threonine-protein kinase mTOR (Homo sapiens, UniProt P42345); experiment: Inhibition of human recombinant GST-tagged mTOR catalytic domain (1360 to 2549 residues) expressed in baculovirus expression system using GFP-4E-BP1 peptide as substrate incubated for 1 hr by LanthaScreen assay
[3] = Hepatic intrinsic clearance in human Hepatocytes assessed per at 1 uM measured upto 90 mins by LC-MS/MS analysis; assay type: ADME, cell-based, Hepatocyte; conditions: 1.5 h
mTORC2 = mTORC2 (Homo sapiens, UniProt P42345); experiment: Inhibition of mTORC2 in human A431 cells assessed as AKT phosphorylation at S473 residue incubated for 3 hrs by HTRF assay; assay type: cell-based
mTORC1 = mTORC1 (Homo sapiens, UniProt P42345); experiment: Inhibition of mTORC1 in human A431 cells assessed as S6RP phosphorylation incubated for 3 hrs by HTRF assay; assay type: cell-based
[4] = target: Phosphatidylinositol 4,5-bisphosphate 3-kinase catalytic subunit alpha isoform (Homo sapiens, UniProt P42336)
Chain of Phosphatidylinositol 4,5-bisphosphate 3-kinase catalytic subunit alpha isoform (P42336 whole entry, canonical isoform): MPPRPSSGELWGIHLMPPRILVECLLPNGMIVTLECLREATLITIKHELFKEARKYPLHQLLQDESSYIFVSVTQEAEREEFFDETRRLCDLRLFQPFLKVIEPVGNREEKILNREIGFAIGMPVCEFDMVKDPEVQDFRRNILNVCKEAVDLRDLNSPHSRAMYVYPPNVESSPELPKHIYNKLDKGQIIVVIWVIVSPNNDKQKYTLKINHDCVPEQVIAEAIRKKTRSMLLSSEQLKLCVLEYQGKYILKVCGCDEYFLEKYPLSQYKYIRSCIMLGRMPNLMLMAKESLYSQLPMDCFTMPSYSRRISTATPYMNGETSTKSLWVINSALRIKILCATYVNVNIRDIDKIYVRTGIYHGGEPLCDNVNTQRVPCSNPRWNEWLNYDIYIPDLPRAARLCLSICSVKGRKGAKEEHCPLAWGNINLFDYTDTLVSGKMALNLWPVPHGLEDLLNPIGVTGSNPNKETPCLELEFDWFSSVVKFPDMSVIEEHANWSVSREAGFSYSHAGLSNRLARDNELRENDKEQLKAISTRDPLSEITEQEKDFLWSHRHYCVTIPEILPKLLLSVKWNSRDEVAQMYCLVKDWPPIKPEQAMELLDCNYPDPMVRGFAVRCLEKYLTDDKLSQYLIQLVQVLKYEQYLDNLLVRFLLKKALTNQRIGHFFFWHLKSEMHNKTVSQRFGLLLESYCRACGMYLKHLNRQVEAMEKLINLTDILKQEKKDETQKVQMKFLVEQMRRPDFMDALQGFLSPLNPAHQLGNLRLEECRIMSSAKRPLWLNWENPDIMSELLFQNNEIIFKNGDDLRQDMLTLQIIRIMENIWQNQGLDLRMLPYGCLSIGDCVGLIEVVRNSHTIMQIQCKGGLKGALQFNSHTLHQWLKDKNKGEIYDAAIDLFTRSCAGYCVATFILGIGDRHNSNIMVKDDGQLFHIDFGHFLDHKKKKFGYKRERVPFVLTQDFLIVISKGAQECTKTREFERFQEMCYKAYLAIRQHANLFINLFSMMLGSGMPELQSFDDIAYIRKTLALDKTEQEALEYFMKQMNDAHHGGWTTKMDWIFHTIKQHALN
Description: Inhibition of PI3Kalpha (unknown origin) using PIP2 as substrate measured after 30 mins by TR-FRET assay

[5] = Lipophilicity, ChromlogD of compound at 0.5 mM at pH 6.5 by UPLC-UV analysis; conditions: buffer, pH 6.5, 500 µM
[6] = Metabolic stability in human liver microsomes assessed as parent compound remaining at 1 uM measured at 15 mins in presence of phase 1 metabolism cofactors by LC-MS/MS analysis; assay type: ADME, Microsome; conditions: read-out: Stability

| SMILES | solubility kinetic at 24 h, 100 µM [1] [µM] | Ki [2] [nM] | CLH [3] [µL/min] | IC50 (mTORC2) [nM] | IC50 (mTORC1) [nM] | Ki [4] [nM] | ChromlogD6.5 [5] | remaining at 0.25 h, 1 µM [6] [%] |
| --- | --- | --- | --- | --- | --- | --- | --- | --- |
| CC(C)n1nc(-c2ccc3oc(N)nc3c2)c2c(CO)nc(N)nc21 | 82 (≈ 27.8 µg/mL) | 4000 | < 5 |  |  | > 10000 | 0.2 | > 95 |
| CNc1nc2c(c(-c3ccc4oc(N)nc4c3)nn2C(C)C)c(=O)[nH]1 | < 1 | 190 | < 5 | 360 | 240 | > 10000 | 1.5 | > 95 |
| CC(C)n1nc(-c2ccc3oc(N)nc3c2)c2c(C(F)(F)F)nc(N)nc21 | < 1 | 2300 | < 5 |  |  | > 10000 | 2.4 | > 95 |
| CCCCn1nc(-c2ccc3oc(N)nc3c2)c2c(Cl)nc(N)nc21 | < 1 | 11 |  | 20 | 7 | 4600 | 2.3 |  |
| CCCCn1nc(-c2ccc3oc(N)nc3c2)c2c(C)nc(N)nc21 | 5.2 (≈ 1.75 µg/mL) | 33 |  | 90 | 30 | 2200 | 1.4 |  |
| CC(C)n1nc(-c2ccc3oc(N)nc3c2)c2c(=O)[nH]c(N)nc21 | 9.2 (≈ 2.99 µg/mL) | 20 | < 5 | 200 | 40 | 3200 | 0.4 | > 95 |
| Cc1nc2c(c(-c3ccc4oc(N)nc4c3)nn2C(C)C)c(=O)[nH]1 | 3 (≈ 0.973 µg/mL) | 40 | < 5 | 90 | 45 | > 10000 | 1.2 | > 95 |
| CC(C)n1nc(-c2ccc3oc(N)nc3c2)c2c(C#N)nc(N)nc21 | < 1 | 2200 | < 5 |  |  | > 10000 | 1.8 | > 95 |
| CC(C)n1nc(-c2ccc3oc(N)nc3c2)c2c(=O)[nH]c(N(C)C)nc21 | 2 (≈ 0.707 µg/mL) | 1700 | < 5 |  |  | > 10000 | 2.1 | 90 |
| CC(C)n1nc(-c2ccc3oc(N)nc3c2)c2cnc(N)nc21 | 1.6 (≈ 0.495 µg/mL) | 6 | 150 | 15 | 7 | 780 | 1.1 | 94 |

Results, then the compound that gave them:

| solubility kinetic at 24 h, 100 µM [1] [µM] | Ki [2] [nM] | CLH [3] [µL/min] | IC50 (mTORC2) [nM] | IC50 (mTORC1) [nM] | Ki [4] [nM] | ChromlogD6.5 [5] | remaining at 0.25 h, 1 µM [6] [%] | SMILES |
| --- | --- | --- | --- | --- | --- | --- | --- | --- |
| 4 (≈ 1.55 µg/mL) | 21 | 55 | 60 | 35 | 1000 | 1.8 | 94 | CC(C)n1nc(-c2ccc3oc(N)nc3c2)c2c(Br)nc(N)nc21 |
| < 1 | 370 |  | 680 | 420 | 250 | 1.6 | > 95 | COc1nc(N)nc2c1c(-c1ccc3oc(N)nc3c1)nn2C(C)C |
| 88 (≈ 28.5 µg/mL) | 4 | < 5 | 11 | 4 | 150 | -0.1 | > 95 | CC(C)n1nc(-c2ccc3oc(N)nc3c2)c2c(N)nc(N)nc21 |
| 82 (≈ 25.4 µg/mL) |  | < 5 |  |  |  | 0.4 | > 95 | CC(C)n1nc(-c2ccc3oc(N)nc3c2)c2c(N)ncnc21 [SAPANISERTIB] |
| 2 (≈ 0.688 µg/mL) |  | 11 | 20 | 8 | 920 | 1.7 | 92 | CC(C)n1nc(-c2ccc3oc(N)nc3c2)c2c(Cl)nc(N)nc21 |
| 62 (≈ 20.9 µg/mL) | 50 | < 5 | 140 | 60 | 85 | 1.2 | 93 | CCc1nc(N)nc2c1c(-c1ccc3oc(N)nc3c1)nn2C(C)C |
| 74 (≈ 23.9 µg/mL) | 62 | < 5 | 200 | 40 | 990 | 0.8 | > 95 | Cc1nc(N)nc2c1c(-c1ccc3oc(N)nc3c1)nn2C(C)C |
| < 1 | 13 | 57 | 80 | 40 | 2600 | 1.8 | 83 | CC(C)n1nc(-c2ccc3oc(N)nc3c2)c2c(F)nc(N)nc21 |
